Patent US20210038730A1, “PEPTIDE NANOFIBERS” (UNIVERSITY OF PORTSMOUTH HIGHER EDUCATION CORPORATION, priority 2018, published 2021)
Converted amounts (≈) assume the structure as drawn. Read-outs that look alike come from different tables or passages of the source. Values belong to the molecule of their own block, whether it stands above or below them.

Tests used:
[1] = Enzymatic stability in rat liver homogenates; conditions: 50% (v/v) rat liver homogenates; analyte in brackets of label
Experimental: (§1) Fresh blood, obtained from adult male Wistar rats, was collected in sterile the 170 I.U. lithium heparin-coated tubes (Vacutainer, BD Bioscience, UK). Blood was centrifuged immediately at 2,000 g for 15 minutes (4° C.) and supernatant was collected and diluted to 50% (v/v) with PBS. Livers and brains were obtained from adult male Wistar rats, and the tissues were blotted to dryness, weighed, sliced into pieces, and homogenised with ice-cold PBS (in 2 mL of buffer g^−1 of tissue) using the glass homogeniser. Then, tissue homogenates were centrifuged at 4,300 g for 1 hour (4° C.) and the supernatants collected. Glioblastoma cell homogenates were prepared using U-87 MG cells. Cells were cultured in Eagle's Minimum Essential Medium (EMEM) supplemented with 10% (v/v) heat-inactivated fetal bovine serum (FBS), 1% (v/v) of non-essential amino acids (NEAA) and 1 mM of sodium pyruvate in T75 flasks with a surface area of 75 cm^2 and maintained in a humidified atmosphere of 5% CO2 at 37° C. Breast cancer cell homogenates were prepared using MDA-MB-231 cells. Cells were cultured in Dulbecco's Modified Eagle Medium (DMEM) supplemented with high levels of glucose (4.5 g/L), 10% (v/v) heat-inactivated fetal bovine serum (FBS), 1% (v/v) of non-essential amino acids (NEAA) and penicillin and streptomycin (500 units/mL) in T75 flasks with a surface area of 75 cm^2 and maintained in a humidified atmosphere of 5% CO2 at 37° C. Media was changed for both cell lines every 3 to 4 days. After reaching confluence, cells were washed twice with Hank's Balanced Salt Solution (HBSS) and incubated with ˜2 mL of TrypLE Enzyme at 37° C. for ˜3 minutes. Then, complete media were added, and cells were centrifuged at 1,000 rpm for 5 minutes in C-28A centrifuge (Boeco, Germany). U-87 MG or MDA-MB-231 cells (˜10×10^6 cells mL^−1) were re-suspended in ice-cold PBS, and homogenised with a 2×5 second pulses with the probe sonicator (UP200S Ultrasonic processor, SciMed, 200 watts, amplitude of 60%). Cell debris were removed by centrifugation at 2,000 rpm for 5 minutes (Jouan B4i, Thermo Scientific, Paisley, UK). Supernatant was collected and stored at −80° C. Total protein concentration in the homogenates was determined using the Bradford assay with bovine serum albumin as a standard. Diluted plasma, tissue or cell homogenates were pre-warmed during ˜30 minutes at 37° C. Peptide stock solutions (Glu-GnRH, goserelin acetate and TPGnRH, 5 mM in PBS, 500 μL) were prepared and added to the homogenate solutions (120 μL). PAX-loaded nanofibers prepared at a ratio of 1:7.36 [PAX:TPGnRH consisting of 3 μmol (2.56 mg mL^−1) of PAX, 22.02 μmol (31.46 mg mL^−1) of TPGnRH], as previously described, and further diluted in PBS to achieve a concentration of 5 mM of TPGnRH and 500 nM of PAX (120 μL) were added to the homogenates. At various time intervals, an aliquot was collected (80 μL) and added to ice-cold ACN (80 μL) to quench the enzymatic activity. Samples were stored at −80° C. for at least 3 hours to maximise protein precipitation. Samples were vortexed for 15 minutes, centrifuged for 15 minutes at 12,000 rpm, and the supernatants were collected and analysed by RP-HPLC.

[2] = Enzymatic stability in MDA-MB-231 cell homogenates
Experimental: as §1

[3] = Enzymatic stability in rat plasma; conditions: 50% (v/v) rat plasma
Experimental: (§2) Fresh blood, obtained from adult male Wistar rats, was collected in sterile the 170 I.U. lithium heparin-coated tubes (Vacutainer, BD Bioscience, UK). Blood was centrifuged immediately at 2,000 g for 15 minutes (4° C.) and supernatant was collected and diluted to 50% (v/v) with PBS. Livers and brains were obtained from adult male Wistar rats, and the tissues were blotted to dryness, weighed, sliced into pieces, and homogenised with ice-cold PBS (in 2 mL of buffer g^−1 of tissue) using the glass homogeniser. Then, tissue homogenates were centrifuged at 4,300 g for 1 hour (4° C.) and the supernatants collected. Glioblastoma cell homogenates were prepared using U-87 MG cells. Cells were cultured in Eagle's Minimum Essential Medium (EMEM) supplemented with 10% (v/v) heat-inactivated fetal bovine serum (FBS), 1% (v/v) of non-essential amino acids (NEAA) and 1 mM of sodium pyruvate in T75 flasks with a surface area of 75 cm^2 and maintained in a humidified atmosphere of 5% CO2 at 37° C. Breast cancer cell homogenates were prepared using MDA-MB-231 cells. Cells were cultured in Dulbecco's Modified Eagle Medium (DMEM) supplemented with high levels of glucose (4.5 g/L), 10% (v/v) heat-inactivated fetal bovine serum (FBS), 1% (v/v) of non-essential amino acids (NEAA) and penicillin and streptomycin (500 units/mL) in T75 flasks with a surface area of 75 cm^2 and maintained in a humidified atmosphere of 5% CO2 at 37° C. Media was changed for both cell lines every 3 to 4 days. After reaching confluence, cells were washed twice with Hank's Balanced Salt Solution (HBSS) and incubated with ˜2 mL of TrypLE Enzyme at 37° C. for ˜3 minutes. Then, complete media were added, and cells were centrifuged at 1,000 rpm for 5 minutes in C-28A centrifuge (Boeco, Germany). U-87 MG or MDA-MB-231 cells (˜10×10^6 cells mL^−1) were re-suspended in ice-cold PBS, and homogenised with a 2×5 second pulses with the probe sonicator (UP200S Ultrasonic processor, SciMed, 200 watts, amplitude of 60%). Cell debris were removed by centrifugation at 2,000 rpm for 5 minutes (Jouan B4i, Thermo Scientific, Paisley, UK). Supernatant was collected and stored at −80° C. Total protein concentration in the homogenates was determined using the Bradford assay with bovine serum albumin as a standard. Diluted plasma, tissue or cell homogenates were pre-warmed during ˜30 minutes at 37° C. Peptide stock solutions (Glu-GnRH, goserelin acetate and TPGnRH, 5 mM in PBS, 500 μL) were prepared and added to the homogenate solutions (120 μL). […] Samples were vortexed for 15 minutes, centrifuged for 15 minutes at 12,000 rpm, and the supernatants were collected and analysed by RP-HPLC.

[4] = Enzymatic stability in rat brain homogenates; conditions: 50% (v/v) rat brain homogenates
Experimental: as §2

[5] = Enzymatic stability in U-87 MG cell homogenates
Experimental: Fresh blood, obtained from adult male Wistar rats, was collected in sterile the 170 I.U. lithium heparin-coated tubes (Vacutainer, BD Bioscience, UK). Blood was centrifuged immediately at 2,000 g for 15 minutes (4° C.) and supernatant was collected and diluted to 50% (v/v) with PBS. Livers and brains were obtained from adult male Wistar rats, and the tissues were blotted to dryness, weighed, sliced into pieces, and homogenised with ice-cold PBS (in 2 mL of buffer g^−1 of tissue) using the glass homogeniser. Then, tissue homogenates were centrifuged at 4,300 g for 1 hour (4° C.) and the supernatants collected. Glioblastoma cell homogenates were prepared using U-87 MG cells. Cells were cultured in Eagle's Minimum Essential Medium (EMEM) supplemented with 10% (v/v) heat-inactivated fetal bovine serum (FBS), 1% (v/v) of non-essential amino acids (NEAA) and 1 mM of sodium pyruvate in T75 flasks with a surface area of 75 cm^2 and maintained in a humidified atmosphere of 5% CO2 at 37° C. Breast cancer cell homogenates were prepared using MDA-MB-231 cells. Cells were cultured in Dulbecco's Modified Eagle Medium (DMEM) supplemented with high levels of glucose (4.5 g/L), 10% (v/v) heat-inactivated fetal bovine serum (FBS), 1% (v/v) of non-essential amino acids (NEAA) and penicillin and streptomycin (500 units/mL) in T75 flasks with a surface area of 75 cm^2 and maintained in a humidified atmosphere of 5% CO2 at 37° C. Media was changed for both cell lines every 3 to 4 days. After reaching confluence, cells were washed twice with Hank's Balanced Salt Solution (HBSS) and incubated with ˜2 mL of TrypLE Enzyme at 37° C. for ˜3 minutes. Then, complete media were added, and cells were centrifuged at 1,000 rpm for 5 minutes in C-28A centrifuge (Boeco, Germany). […] Total protein concentration in the homogenates was determined using the Bradford assay with bovine serum albumin as a standard. […] Samples were vortexed for 15 minutes, centrifuged for 15 minutes at 12,000 rpm, and the supernatants were collected and analysed by RP-HPLC.

[6] = molecular target: T1, GnRH-R expressed on glioblastoma cells (Homo sapiens, UniProt P30968); assay: Receptor binding by single molecule force spectroscopy; conditions: for koff: read-out: Dissociation Rate (Koff)
T1 construct: GnRH peptides to the GnRH-R expressed on glioblastoma cells; endogenous in cells; host or cells: U-87 MG, UP-007, UP-029, SEBTA-023 glioblastoma cells (living)
T1 sequence (P30968 1-328): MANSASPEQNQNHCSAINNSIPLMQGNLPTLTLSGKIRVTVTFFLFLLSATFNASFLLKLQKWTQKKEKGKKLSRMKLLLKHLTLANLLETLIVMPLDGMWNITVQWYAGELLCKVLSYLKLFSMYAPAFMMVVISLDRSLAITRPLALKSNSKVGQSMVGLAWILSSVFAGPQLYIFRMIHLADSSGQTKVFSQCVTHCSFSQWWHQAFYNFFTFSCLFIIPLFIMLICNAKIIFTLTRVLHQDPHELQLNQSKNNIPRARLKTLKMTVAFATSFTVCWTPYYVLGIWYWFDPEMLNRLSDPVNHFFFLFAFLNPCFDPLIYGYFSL
Experimental: The binding of the GnRH analogues to GnRH-R was assessed using single molecule force spectroscopy (SMFS) and Topography and Recognition (TREC) imaging based on AFM. AFM tips were functionalised with Glu-GnRH, goserelin acetate and […] as a monomer and nanofibers using a previously described method ^9, 10. Silicon nitride (6-20 pN/nm spring constant, Bruker, Mass., USA) and magnetically coated […] tips (Keysight, Calif., USA) were used for SMFS and TREC studies, respectively. […] Subsequently, acetal groups were converted into aldehyde groups by immersing the tips in a 1% (w/v) citric acid solution for 10 minutes. […] Following an incubation of 2 hours, the free aldehyde groups were inactivated by ethanolamine for 10 minutes. AFM tips were washed with PBS three times and stored at 4° C. […] Loading rates were calculated by multiplying the pulling velocity (v) with the effective spring constant (keff). Spring constants were determined by the thermal-noise method. The force-distance curves were acquired using PicoView 1.12 (Agilent Technologies, Inc., California, USA) and analysed in Matlab 8.1 software (MathWorks, Massachusetts, USA). […] Amplitude-distance curves were collected on a glass coverslip to adjust the free oscillation amplitude, and to determine the optimal amplitude reduction value for driving the feedback loop during the imaging. Free amplitude of cantilever oscillation was 30 nm and the excitation frequency was set to 9 kHz.

[7] = molecular target: T2, GnRH-R on U-87 MG cells (Homo sapiens, UniProt P30968); assay: SMFS blocking experiments with free GnRH-R ligands; format: binding
T2 construct: endogenous in cells; host or cells: U-87 MG
T2 sequence (P30968 1-328): T1 sequence (P30968 1-328)
Experimental: Blocking experiments were performed with different GnRH-R ligands (anti-GnRH-R antibody, Glu-GnRH, goserelin acetate, and TPGnRH). U-87 MG cells were analysed with tips functionalised with TPGnRH nanofibers and then the free ligands were added at a final concentration of 1 μg mL^−1 (anti-GnRH-R antibody) or 50 μg mL^−1 (Glu-GnRH, goserelin acetate and TPGnRH). U-87 MG cells treated with ligands were incubated for, at least, one hour at room temperature, and then the same cells were analysed with the same TPGnRH-functionalised tip at the same location in the cell.

[8] = physchem
Experimental: Paclitaxel (PAX)-loaded TPGnRH nanofibers were prepared by adding a PAX solution (250 μL, 2.562 mg mL^−1 in isopropyl alcohol, IPA) to the dry peptide to achieve a molar ratio of 1:1, 1:1.95, 1:3.68 or 1:7.36 of PAX:TPGnRH. After vortexing, bath and probe sonication (200 watts, amplitude 60%, UP200S Ultrasonic, SciMed, Stockport, UK) for 10 minutes, the IPA was removed by rotary evaporation. The film was re-hydrated in acetate buffer (50 mM, pH 4.5), and the final formulation was centrifuged for 5 minutes at 900 rpm to remove undissolved PAX. Supernatant was collected and the amount of PAX and TPGnRH was quantified by reverse phase-HPLC. […] Morphology of PAX-loaded formulations was evaluated using TEM and AFM, as described above.

[9] = Release from 3D printed cellulose-sodium alginate bioinks; format: physicochemical; conditions: PBS
Experimental: Peptide nanofibers were embedded in cellulose nanocrystals and sodium alginate hydrogels. Cellulose nanocrystals were synthesised by sulphuric acid degradation (45% w/v, 150 mls) of cellulose (15 g, Western Hemlock) at 50° C. over 90 minutes under stirring. Cold-deionised water was used to quench reaction and acid was removed by centrifugation (4,000 rpm, 10 minutes). Cellulose nanocrystals were dialysed (12-14 kDa for cytochrome C, Medicell Ltd) over 5 L with 6 changes over 24 hours. Resulting suspension was probe sonicated (400 watt, 23% amplitude, 10 minutes) in 50 mLs aliquots. The resulting suspension was centrifuged (4,000 rpm, 10 minutes) and supernatant was stored in the refrigerator. Cellulose nanocrystals (CNCs, 4.5% w/w, 2 g) were loaded onto a syringe attached to a three-way valve, where a syringe loaded sodium alginate (6% w/w in 4.6% glucose, 1.7 g). The CNCs were injected in the sodium alginate syringe and mixed 10 times (in each direction). Sample was collected in one syringe and a new syringe containing calcium chloride (0.1M, 0.9 mL). Sample was pushed into calcium chloride and mixed 5 times (in each direction) prior collecting the gel in one syringe and loading in cartridges. Peptide nanofibers (5 mg) were dispersed in 0.9 mL of 0.1M calcium chloride and mixed as above when needed. Release of paclitaxel loaded and TPGnRH gels in PBS (1×, 7.4, 6 mLs) was quantified as per HPLC method described previously (Example 7, Table 2). After an initial burst release, a controlled release profile is observed with gradual slow release over days. Resulting inks can be utilised for the production of nanofiber loaded implants for tumour patients.

[10] = in vitro; conditions: human
Experimental: In order to test the permeability of TPGnRH nanofibers across the blood-brain barrier (BBB), a static contact co-culture was set up according to a previous method^7. Briefly, human astrocytes (SC-1800, 25,000 cells/well) were seeded on the abluminal side of a 24-well plate Transwell polycarbonate membrane (3 μm of a pore size, Corning Star, Deeside, UK) coated with human fibronectin. Cells were allowed to attach for 3 days, and then human brain microvascular endothelial cells (hCMEC/D3, 75,000 cells/well) were seeded on the luminal side of the Transwell and co-cultured with astrocytes for five days with a daily change of the media. Transendothelial resistance was measured using EVOM voltohmmeter (World Precision Instruments, Berlin, Germany).
Transwells were washed with HBSS and immersed into HBSS (600 μL in abluminal side). […] Samples (100 μL) were collected from the abluminal side at specific time-points, and fresh HBSS (100 μL) was used to replace the volume from the abluminal compartments. […] PAX was analysed using reverse phase-HPLC with the gradient method described on Table 2. TR-TPGnRH was quantified in POLARstar Omega plate reader spectrophotometer with λexc 596 and λem 615 nm. The permeability coefficient (Papp) was determined using the equation: […]
ΔQr, is the flux of drug along time (μg mL^−1), Vr is the volume of the abluminal side (mL), A is the area of the Transwell membrane, C0 is the concentration of drug in the luminal side, and 60, the converser factor from minutes to seconds^8.

[11] = human, MDA-MB-231 breast cancer cell homogenate
[12] = after pre-incubation with the free ligand named as label (antibody 1 μg mL^−1, peptides 50 μg mL^−1)
[13] = before addition of the free ligand named as label (no pre-incubation)

Plateau [1]: 16.58 µg/mL | T1/2α [1]: 0.67 ± 0.03 min | kα [1]: 1.088 min⁻¹ | Plateau ([2]; MDA-MB-231 cell homogenates): 552.9 µg/mL | k ([2]; MDA-MB-231 cell homogenates): 0.1551 min⁻¹ | AUC(0-t) at 4.03 mM [2, 11]: 20000 µg·h/mL | C0 at 4.03 mM [2, 11]: 1420 µg/mL | half-life at 4.03 mM [2, 11]: 4.47 ± 1.27 min | Plateau [3]: 3.952 µg/mL | k ([3]; analyte in brackets of label): 0.04021 min⁻¹ | Plateau [4]: 3.952 µg/mL | k ([4]; analyte in brackets of label): 0.1928 min⁻¹ | Plateau [5]: 3.952 µg/mL | k ([5]; analyte in brackets of label): 0.1928 min⁻¹ | Binding Force ([6]; SEBTA-023): 40.3 ± 11.70 pN | Binding Probability ([6]; SEBTA-023): 4.93 ± 0.91% | koff ([6]; SEBTA-023): 1.22 ± 0.31 s⁻¹ | Binding Force ([6]; U-87 MG): 25.88 ± 0.94 pN | Binding Probability ([6]; U-87 MG): 13.3 ± 1.91% | koff ([6]; U-87 MG): 1.29 ± 0.34 s⁻¹ | Binding Force ([6]; UP-007): 38.20 ± 9.16 pN | Binding Probability ([6]; UP-007): 12.84 ± 4.32% | koff ([6]; UP-007): 1.52 ± 0.2 s⁻¹ | Binding Force ([6]; UP-029): 45.6 ± 4.64 pN | Binding Probability ([6]; UP-029): 6.93 ± 2.96% | koff ([6]; UP-029): 1.66 ± 0.25 s⁻¹ | Binding Probability of TPGnRH nanofiber tip to U-87 MG cells [7, 12]: 3.4% | Binding Probability of TPGnRH nanofiber tip to U-87 MG cells [7, 13]: 12.6%
SMILES: CC(C)C[C@H](NC(=O)CNC(=O)[C@H](Cc1ccc(O)cc1)NC(=O)[C@H](CO)NC(=O)[C@H](Cc1c[nH]c2ccccc12)NC(=O)[C@H](Cc1cnc[nH]1)NC(=O)[C@@H](N)CCC(=O)O)C(=O)N[C@@H](CCCNC(=N)N)C(=O)N1CCC[C@H]1C(=O)NCC(N)=O [Glu-GnRH, Glu-His-Trp-Ser^4-Tyr^5-Gly^6-Leu-Arg-Pro-Gly-NH2, reference compound]

Binding Force ([6]; U-87 MG): 29.88 ± 2.34 pN | Binding Probability ([6]; U-87 MG): 4.4 ± 0.94% | koff ([6]; U-87 MG): 0.68 ± 0.08 s⁻¹ | Binding Force ([6]; UP-007): 34.00 ± 15.5 pN | Binding Probability ([6]; UP-007): 7.48 ± 0.76% | koff ([6]; UP-007): 1.54 ± 0.12 s⁻¹ | Binding Probability of TPGnRH nanofiber tip to U-87 MG cells [7, 12]: 3.8% | Binding Probability of TPGnRH nanofiber tip to U-87 MG cells [7, 13]: 16.2%
SMILES: CC(C)C[C@H](NC(=O)[C@@H](COC(C)(C)C)NC(=O)[C@H](Cc1ccc(O)cc1)NC(=O)[C@H](CO)NC(=O)[C@H](Cc1c[nH]c2ccccc12)NC(=O)[C@H](Cc1cnc[nH]1)NC(=O)[C@@H]1CCC(=O)N1)C(=O)N[C@@H](CCCNC(=N)N)C(=O)N1CCC[C@H]1C(=O)NNC(N)=O [Goserelin, goserelin acetate, reference compound]

solubility ([8]; aqueous buffer): 0.00092 ± 0.00135 mg/mL (≈ 1.08 µM) | solubility ([8]; aqueous with cosolvent or surfactant or cyclodextrin): 0.0293 ± 0.00363 mg/mL (≈ 34.3 µM) | % release from 3D printed bioink ([9]; 0 minutes): 0% | % release from 3D printed bioink ([9]; 1 minutes): 13.1 ± 15.6% | % release from 3D printed bioink ([9]; 5 minutes): 13.7 ± 5.6% | % release from 3D printed bioink ([9]; 10 minutes): 18.0 ± 10.6% | % release from 3D printed bioink ([9]; 15 minutes): 10.7 ± 2.3% | % release from 3D printed bioink ([9]; 30 minutes): 11.8 ± 5.2% | % release from 3D printed bioink ([9]; 45 minutes): 13.7 ± 8.4% | % release from 3D printed bioink ([9]; 60 minutes): 20.7 ± 9.6% | % release from 3D printed bioink ([9]; 90 minutes): 24.6 ± 5.1% | % release from 3D printed bioink ([9]; 120 minutes): 26.9 ± 9.4% | % release from 3D printed bioink ([9]; 240 minutes): 19.0 ± 10.9% | % release from 3D printed bioink ([9]; 360 minutes): 24.8 ± 7.3% | % release from 3D printed bioink ([9]; 1110 minutes): 28.0 ± 11.4% | % release from 3D printed bioink ([9]; 1440 minutes): 30.2 ± 9.8% | % release from 3D printed bioink ([9]; 2760 minutes): 37.1 ± 7.2% | Papp A→B at 50 μg mL^−1 [10]: 1.9 nm/s
SMILES: CC(=O)O[C@H]1C(=O)[C@@]2(C)[C@H]([C@H](OC(=O)c3ccccc3)[C@]3(O)C[C@H](OC(=O)[C@H](O)[C@@H](NC(=O)c4ccccc4)c4ccccc4)C(C)=C1C3(C)C)[C@]1(OC(C)=O)CO[C@@H]1C[C@@H]2O [PAX, Paclitaxel, reference compound]
